Test results taken from PubChem BioAssay (NCI).
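Method: 48-hour compound exposure of cells in 96-well plates, five concentrations, linear interpolation of endpoints. The concentration for full growth arrest is given as TGI.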

What was measured:
Test in all cases: inhibition of tumour cell growth, NCI panel, 48 h
LXFL 529 NSCLC = test system: LXFL 529 NSCLC
HOP-18 NSCLC = test system: HOP-18 NSCLC
HOP-92 NSCLC = test system: HOP-92 NSCLC
ACHN renal = test system: ACHN renal
RXF-631 renal = test system: RXF-631 renal
SF-539 CNS = test system: SF-539 CNS
NCI-H23 lung = test system: NCI-H23 lung
NCI-H460 lung = test system: NCI-H460 lung
OVCAR-5 ovarian = test system: OVCAR-5 ovarian
SK-MEL-2 melanoma = test system: SK-MEL-2 melanoma
SNB-19 CNS = test system: SNB-19 CNS
KM20L2 colon = test system: KM20L2 colon
HCT-116 colon = test system: HCT-116 colon
OVCAR-8 ovarian = test system: OVCAR-8 ovarian
TK-10 renal = test system: TK-10 renal
EKVX NSCLC = test system: EKVX NSCLC
SF-295 CNS = test system: SF-295 CNS
U251 CNS = test system: U251 CNS
OVCAR-4 ovarian = test system: OVCAR-4 ovarian
HL-60(TB) leukemia = test system: HL-60(TB) leukemia
KM12 colon = test system: KM12 colon
SK-MEL-5 melanoma = test system: SK-MEL-5 melanoma
SF-268 CNS = test system: SF-268 CNS
K-562 leukemia = test system: K-562 leukemia
A549 NSCLC = test system: A549 NSCLC
UACC-257 melanoma = test system: UACC-257 melanoma
COLO 205 colon = test system: COLO 205 colon
MOLT-4 leukemia = test system: MOLT-4 leukemia
SN12C renal = test system: SN12C renal
HT29 colon = test system: HT29 colon
SNB-78 CNS = test system: SNB-78 CNS
SW-620 colon = test system: SW-620 colon
IGROV1 ovarian = test system: IGROV1 ovarian
MALME-3M melanoma = test system: MALME-3M melanoma
RXF 393 renal = test system: RXF 393 renal
A498 renal = test system: A498 renal
M14 melanoma = test system: M14 melanoma
DLD-1 colon = test system: DLD-1 colon
SR leukemia = test system: SR leukemia
UACC-62 melanoma = test system: UACC-62 melanoma
786-0 renal = test system: 786-0 renal
OVCAR-3 ovarian = test system: OVCAR-3 ovarian
CCRF-CEM leukemia = test system: CCRF-CEM leukemia
M19-MEL melanoma = test system: M19-MEL melanoma
HCC-2998 colon = test system: HCC-2998 colon
HCT-15 colon = test system: HCT-15 colon
UO-31 renal = test system: UO-31 renal
NCI-H522 lung = test system: NCI-H522 lung
NCI-H226 lung = test system: NCI-H226 lung
DMS 114 small cell lung = test system: DMS 114 small cell lung
SK-OV-3 ovarian = test system: SK-OV-3 ovarian
CAKI-1 renal = test system: CAKI-1 renal
RPMI-8226 leukemia = test system: RPMI-8226 leukemia
SK-MEL-28 melanoma = test system: SK-MEL-28 melanoma
HOP-62 NSCLC = test system: HOP-62 NSCLC
DMS 273 small cell lung = test system: DMS 273 small cell lung
SNB-75 CNS = test system: SNB-75 CNS

Compound: CC/C(CC(=O)CCC(=O)Nc1c(C)cccc1C)=N\NC(=O)NN
- TGI (LXFL 529 NSCLC): > 100 µM
- TGI (HOP-18 NSCLC): > 100 µM
- TGI (HOP-92 NSCLC): > 100 µM
- TGI (ACHN renal): > 100 µM
- TGI (RXF-631 renal): > 100 µM
- TGI (SF-539 CNS): > 100 µM
- TGI (NCI-H23 lung): > 100 µM
- TGI (NCI-H460 lung): > 100 µM
- TGI (OVCAR-5 ovarian): > 100 µM
- TGI (SK-MEL-2 melanoma): > 100 µM
- TGI (SNB-19 CNS): > 100 µM
- TGI (KM20L2 colon): > 100 µM
- TGI (HCT-116 colon): > 100 µM
- TGI (OVCAR-8 ovarian): > 100 µM
- TGI (TK-10 renal): > 100 µM
- TGI (EKVX NSCLC): > 100 µM
- TGI (SF-295 CNS): > 100 µM
- TGI (U251 CNS): > 100 µM
- TGI (OVCAR-4 ovarian): > 100 µM
- TGI (HL-60(TB) leukemia): > 100 µM
- TGI (KM12 colon): > 100 µM
- TGI (SK-MEL-5 melanoma): > 100 µM
- TGI (SF-268 CNS): > 100 µM
- TGI (K-562 leukemia): > 100 µM
- TGI (A549 NSCLC): > 100 µM
- TGI (UACC-257 melanoma): > 100 µM
- TGI (COLO 205 colon): > 100 µM
- TGI (MOLT-4 leukemia): > 100 µM
- TGI (SN12C renal): > 100 µM
- TGI (HT29 colon): > 100 µM
- TGI (SNB-78 CNS): > 100 µM
- TGI (SW-620 colon): > 100 µM
- TGI (IGROV1 ovarian): > 100 µM
- TGI (MALME-3M melanoma): > 100 µM
- TGI (RXF 393 renal): > 100 µM
- TGI (A498 renal): > 100 µM
- TGI (M14 melanoma): > 100 µM
- TGI (DLD-1 colon): > 100 µM
- TGI (SR leukemia): > 100 µM
- TGI (UACC-62 melanoma): > 100 µM
- TGI (786-0 renal): > 100 µM
- TGI (OVCAR-3 ovarian): > 100 µM
- TGI (CCRF-CEM leukemia): > 100 µM
- TGI (M19-MEL melanoma): > 100 µM
- TGI (HCC-2998 colon): > 100 µM
- TGI (HCT-15 colon): > 100 µM
- TGI (UO-31 renal): > 100 µM

Compound: Cc1ccc(S(=O)(=O)N/N=C(/CC(=O)c2c(C)n([O-])c3ccccc3[n+]2=O)C(=O)Nc2ccc(C)c(C)c2)cc1
- TGI (LXFL 529 NSCLC): > 100 µM
- TGI (HOP-18 NSCLC): > 100 µM
- TGI (ACHN renal): > 100 µM
- TGI (RXF-631 renal): > 100 µM
- TGI (SF-539 CNS): > 100 µM
- TGI (NCI-H23 lung): > 100 µM
- TGI (NCI-H460 lung): > 100 µM
- TGI (OVCAR-5 ovarian): > 100 µM
- TGI (SK-MEL-2 melanoma): > 100 µM
- TGI (SNB-19 CNS): > 100 µM
- TGI (KM20L2 colon): > 100 µM
- TGI (HCT-116 colon): > 100 µM
- TGI (NCI-H522 lung): > 100 µM
- TGI (NCI-H226 lung): > 100 µM
- TGI (EKVX NSCLC): > 100 µM
- TGI (SF-295 CNS): > 100 µM
- TGI (U251 CNS): > 100 µM
- TGI (OVCAR-4 ovarian): > 100 µM
- TGI (DMS 114 small cell lung): 67.2 µM
- TGI (KM12 colon): > 100 µM
- TGI (SF-268 CNS): > 100 µM
- TGI (SK-OV-3 ovarian): > 100 µM
- TGI (CAKI-1 renal): > 100 µM
- TGI (A549 NSCLC): > 100 µM
- TGI (UACC-257 melanoma): > 100 µM
- TGI (COLO 205 colon): > 100 µM
- TGI (SN12C renal): > 100 µM
- TGI (HT29 colon): > 100 µM
- TGI (SNB-78 CNS): > 100 µM
- TGI (SW-620 colon): > 100 µM
- TGI (IGROV1 ovarian): > 100 µM
- TGI (MALME-3M melanoma): > 100 µM
- TGI (RXF 393 renal): > 100 µM
- TGI (A498 renal): > 100 µM
- TGI (M14 melanoma): > 100 µM
- TGI (RPMI-8226 leukemia): > 100 µM
- TGI (SK-MEL-28 melanoma): > 100 µM
- TGI (HOP-62 NSCLC): > 100 µM
- TGI (DLD-1 colon): > 100 µM
- TGI (DMS 273 small cell lung): > 100 µM
- TGI (UACC-62 melanoma): > 100 µM
- TGI (786-0 renal): > 100 µM
- TGI (OVCAR-3 ovarian): 63.1 µM
- TGI (SNB-75 CNS): > 100 µM
- TGI (M19-MEL melanoma): 42.6 µM
- TGI (HCC-2998 colon): > 100 µM
- TGI (HCT-15 colon): > 100 µM
- TGI (UO-31 renal): > 100 µM
